One data set addresses Cytochrome P450 2D6 (Homo sapiens, UniProt P10635). The experiment in a line: Inhibition of recombinant human CYP2D6 expressed in Escherichia coli bactosomes using 4-methylaminomethyl-7-methoyxycoumarin as substrate after 10 mins by fluorescence assay. It counts as ADME.
The test system of data set [1] is Hepatocyte. The experiment in a line: Clearance in human hepatocytes assessed per gram of tissue at 1 uM by LC-MS/MS analysis. It counts as ADME, cell-based.
Data set [2] has as its target Bromodomain-containing protein 4 (Homo sapiens, UniProt O60885). The experiment in a line: Displacement of biotinylated tetra-acetylated histone H4 from His6-tagged BRD4 (1 to 477 aa) (unknown origin) after 1 hr by TR-FRET assay. In general terms: Time-resolved FRET reads energy transfer from a long-lived donor to a nearby acceptor.
The target in data set [3] is T1, Cytochrome P450 3A4 (Homo sapiens, UniProt P08684). The experiment in a line: Inhibition of human recombinant CYP3A4 expressed in Escherichia coli bactosomes using diethoxyfluorescein as substrate after 10 mins by fluorescence assay. It counts as ADME.
T1 sequence (P08684 whole entry, the tested form may be a part): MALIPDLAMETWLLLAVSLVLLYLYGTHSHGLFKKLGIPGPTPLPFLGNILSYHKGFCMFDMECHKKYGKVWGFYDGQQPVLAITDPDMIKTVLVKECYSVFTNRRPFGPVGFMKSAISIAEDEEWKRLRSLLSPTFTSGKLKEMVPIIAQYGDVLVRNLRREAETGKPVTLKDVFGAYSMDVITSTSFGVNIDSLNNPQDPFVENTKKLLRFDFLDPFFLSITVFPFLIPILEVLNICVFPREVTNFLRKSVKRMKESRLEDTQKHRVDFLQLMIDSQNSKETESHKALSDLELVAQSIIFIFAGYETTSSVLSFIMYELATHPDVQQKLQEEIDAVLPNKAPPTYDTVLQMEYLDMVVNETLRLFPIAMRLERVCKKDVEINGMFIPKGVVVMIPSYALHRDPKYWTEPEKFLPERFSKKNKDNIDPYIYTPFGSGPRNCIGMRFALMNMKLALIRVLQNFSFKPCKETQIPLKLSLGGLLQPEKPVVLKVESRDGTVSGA
For data set [4], the target named is Bromodomain-containing protein 2 (Homo sapiens, UniProt P25440). The experiment in a line: Displacement of biotinylated tetra-acetylated histone H4 from His6-tagged BRD2 (1 to 473 aa) (unknown origin) after 1 hr by TR-FRET assay.
Sequence of Bromodomain-containing protein 2 (P25440 whole entry, the tested form may be a part): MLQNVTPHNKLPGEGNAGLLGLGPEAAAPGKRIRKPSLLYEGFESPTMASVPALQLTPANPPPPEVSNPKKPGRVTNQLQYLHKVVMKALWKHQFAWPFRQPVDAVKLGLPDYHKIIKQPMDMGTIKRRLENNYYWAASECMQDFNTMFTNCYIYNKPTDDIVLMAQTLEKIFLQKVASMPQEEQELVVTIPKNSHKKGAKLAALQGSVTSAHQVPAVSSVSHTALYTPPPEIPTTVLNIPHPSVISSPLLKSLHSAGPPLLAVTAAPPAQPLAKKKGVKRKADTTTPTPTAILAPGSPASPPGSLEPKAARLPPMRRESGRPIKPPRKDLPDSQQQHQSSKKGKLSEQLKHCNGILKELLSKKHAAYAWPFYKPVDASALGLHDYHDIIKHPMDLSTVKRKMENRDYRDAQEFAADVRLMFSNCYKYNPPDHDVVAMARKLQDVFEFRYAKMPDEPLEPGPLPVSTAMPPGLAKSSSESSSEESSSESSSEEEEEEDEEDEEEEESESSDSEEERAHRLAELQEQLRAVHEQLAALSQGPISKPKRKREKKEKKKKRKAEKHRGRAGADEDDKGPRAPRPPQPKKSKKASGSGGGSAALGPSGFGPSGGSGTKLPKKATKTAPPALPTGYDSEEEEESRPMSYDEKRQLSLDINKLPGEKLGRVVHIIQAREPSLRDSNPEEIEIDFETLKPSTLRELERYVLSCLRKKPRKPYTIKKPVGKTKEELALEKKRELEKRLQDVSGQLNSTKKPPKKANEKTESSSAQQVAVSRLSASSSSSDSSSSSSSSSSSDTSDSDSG
Another data set concerns the target Cytochrome P450 1A2 (Homo sapiens, UniProt P05177). The experiment in a line: Inhibition of CYP1A2 (unknown origin) expressed in Escherichia coli bactosomes using ethoxyresorufin as substrate after 10 mins by fluorescence assay. It counts as ADME.
The test system of a further data set is PBMC. The experiment in a line: Inhibition of LPS-induced IL6 production in human PBMC after 18 to 24 hrs by immunoassay. It counts as functional, cell-based.
A further data set relates to Blood. The experiment in a line: Inhibition of LPS-induced IL6 production in human whole blood after 24 hrs by immunoassay. It counts as functional, tissue-based.
A short description of data set [5]: Solubility of the compound in fasted state simulated intestinal fluid at 125 ug/ml after 16 hrs by HPLC analysis. It counts as ADME. The conditions noted are these: simulated gi fluid, 16 h.
The next data set concerns HepG2. The experiment in a line: Upregulation of ApoA1 in human HepG2 cells after 16 hrs by luciferase reporter assay relative to control. It counts as functional.
Data set [6] can be described thus: Clearance in dog hepatocytes assessed per gram of tissue at 1 uM by LC-MS/MS analysis. It counts as ADME, cell-based, Canis lupus familiaris, Hepatocyte.
In another data set the target is Cytochrome P450 2C19 (Homo sapiens, UniProt P33261). The experiment in a line: Inhibition of CYP2C19 (unknown origin) expressed in Escherichia coli bactosomes using 3-butyryl-7-methoxycoumarin as substrate after 10 mins by fluorescence assay. It counts as ADME.
Sequence of Cytochrome P450 2C19 (P33261 whole entry, the tested form may be a part): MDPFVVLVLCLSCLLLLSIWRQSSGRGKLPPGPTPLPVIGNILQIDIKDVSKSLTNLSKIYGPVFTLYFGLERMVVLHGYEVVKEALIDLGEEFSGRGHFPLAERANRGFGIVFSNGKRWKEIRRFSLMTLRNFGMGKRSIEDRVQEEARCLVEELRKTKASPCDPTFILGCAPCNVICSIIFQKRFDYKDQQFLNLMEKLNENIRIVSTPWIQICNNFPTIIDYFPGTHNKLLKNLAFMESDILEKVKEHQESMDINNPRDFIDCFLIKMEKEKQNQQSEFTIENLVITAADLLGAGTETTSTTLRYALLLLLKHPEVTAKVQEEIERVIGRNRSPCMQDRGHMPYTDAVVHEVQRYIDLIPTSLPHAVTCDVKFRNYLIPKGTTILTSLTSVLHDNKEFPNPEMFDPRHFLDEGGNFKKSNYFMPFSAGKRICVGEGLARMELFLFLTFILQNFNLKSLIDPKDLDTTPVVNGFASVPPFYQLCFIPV
Data set [7] concerns the target Bromodomain-containing protein 3 (Homo sapiens, UniProt Q15059). The experiment in a line: Displacement of biotinylated tetra-acetylated histone H4 from His6-tagged BRD3 (1 to 475 aa) (unknown origin) after 1 hr by TR-FRET assay.
Data set [8] deals with T1, Cytochrome P450 3A4. The experiment in a line: Inhibition of human recombinant CYP3A4 expressed in Escherichia coli bactosomes using 7-benzloxyquinolone as substrate after 10 mins by fluorescence assay. It counts as ADME.
Data set [9] is described as follows: Clearance in Cynomolgus monkey hepatocytes assessed per gram of tissue at 1 uM by LC-MS/MS analysis. It counts as ADME, cell-based, Macaca fascicularis, Hepatocyte.
The next data set has as its target Cytochrome P450 2C9 (Homo sapiens, UniProt P11712). The experiment in a line: Inhibition of CYP2C9 (unknown origin) expressed in Escherichia coli bactosomes using 7-methoxy-4-trifluoromethylcoumarin-3-acetic acid as substrate after 10 mins by fluorescence assay. It counts as ADME.
Data set [10] relates to Hepatocyte. The experiment in a line: Clearance in rat hepatocytes assessed per gram of tissue at 1 uM by LC-MS/MS analysis. It counts as ADME, cell-based.

The structures appear in SMILES notation. In brackets after ≈: the same amount, converted by molar mass.

Sequence of Cytochrome P450 1A2 (P05177 whole entry): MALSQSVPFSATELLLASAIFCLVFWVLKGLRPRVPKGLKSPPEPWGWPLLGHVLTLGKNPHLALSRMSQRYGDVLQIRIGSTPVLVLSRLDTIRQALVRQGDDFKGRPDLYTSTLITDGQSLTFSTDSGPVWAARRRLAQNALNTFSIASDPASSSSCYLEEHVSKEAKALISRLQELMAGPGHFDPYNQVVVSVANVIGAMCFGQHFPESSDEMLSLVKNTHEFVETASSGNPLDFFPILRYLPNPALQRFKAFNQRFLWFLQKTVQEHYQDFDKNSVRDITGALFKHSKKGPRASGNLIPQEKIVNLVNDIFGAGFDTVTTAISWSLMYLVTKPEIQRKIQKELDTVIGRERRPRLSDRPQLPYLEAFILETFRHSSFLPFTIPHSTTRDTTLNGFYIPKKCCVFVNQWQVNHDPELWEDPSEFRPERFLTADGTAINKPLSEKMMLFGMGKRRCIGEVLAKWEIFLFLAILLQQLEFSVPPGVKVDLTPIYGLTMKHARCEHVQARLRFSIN
Sequence of Cytochrome P450 2D6 (P10635 whole entry): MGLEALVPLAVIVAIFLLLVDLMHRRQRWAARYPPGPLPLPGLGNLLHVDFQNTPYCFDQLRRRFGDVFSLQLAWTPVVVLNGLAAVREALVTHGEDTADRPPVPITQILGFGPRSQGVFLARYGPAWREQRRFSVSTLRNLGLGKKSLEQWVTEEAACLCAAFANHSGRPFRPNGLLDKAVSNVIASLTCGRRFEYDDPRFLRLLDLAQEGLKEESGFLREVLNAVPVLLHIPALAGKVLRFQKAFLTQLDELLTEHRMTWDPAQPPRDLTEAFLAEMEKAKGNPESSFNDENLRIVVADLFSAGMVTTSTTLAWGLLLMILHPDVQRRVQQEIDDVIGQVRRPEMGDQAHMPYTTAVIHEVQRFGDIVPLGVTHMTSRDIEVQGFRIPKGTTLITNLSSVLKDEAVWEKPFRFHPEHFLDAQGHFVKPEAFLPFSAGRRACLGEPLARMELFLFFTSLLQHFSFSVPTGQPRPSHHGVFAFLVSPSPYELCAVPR
Sequence of Cytochrome P450 2C9 (P11712 whole entry): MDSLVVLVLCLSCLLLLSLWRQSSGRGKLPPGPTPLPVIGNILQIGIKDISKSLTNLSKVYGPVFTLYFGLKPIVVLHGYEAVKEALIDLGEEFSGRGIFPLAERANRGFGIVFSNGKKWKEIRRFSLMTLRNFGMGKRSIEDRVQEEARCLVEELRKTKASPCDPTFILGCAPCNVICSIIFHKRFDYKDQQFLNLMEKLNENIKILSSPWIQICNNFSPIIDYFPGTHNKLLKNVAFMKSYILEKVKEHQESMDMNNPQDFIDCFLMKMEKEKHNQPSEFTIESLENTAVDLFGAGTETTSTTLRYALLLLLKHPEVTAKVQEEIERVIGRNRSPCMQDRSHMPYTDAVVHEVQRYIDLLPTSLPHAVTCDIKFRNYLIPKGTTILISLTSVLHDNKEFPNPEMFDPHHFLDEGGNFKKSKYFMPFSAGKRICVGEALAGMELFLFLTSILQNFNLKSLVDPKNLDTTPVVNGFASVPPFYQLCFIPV
Sequence of Bromodomain-containing protein 3 (Q15059 whole entry, the tested form may be a part): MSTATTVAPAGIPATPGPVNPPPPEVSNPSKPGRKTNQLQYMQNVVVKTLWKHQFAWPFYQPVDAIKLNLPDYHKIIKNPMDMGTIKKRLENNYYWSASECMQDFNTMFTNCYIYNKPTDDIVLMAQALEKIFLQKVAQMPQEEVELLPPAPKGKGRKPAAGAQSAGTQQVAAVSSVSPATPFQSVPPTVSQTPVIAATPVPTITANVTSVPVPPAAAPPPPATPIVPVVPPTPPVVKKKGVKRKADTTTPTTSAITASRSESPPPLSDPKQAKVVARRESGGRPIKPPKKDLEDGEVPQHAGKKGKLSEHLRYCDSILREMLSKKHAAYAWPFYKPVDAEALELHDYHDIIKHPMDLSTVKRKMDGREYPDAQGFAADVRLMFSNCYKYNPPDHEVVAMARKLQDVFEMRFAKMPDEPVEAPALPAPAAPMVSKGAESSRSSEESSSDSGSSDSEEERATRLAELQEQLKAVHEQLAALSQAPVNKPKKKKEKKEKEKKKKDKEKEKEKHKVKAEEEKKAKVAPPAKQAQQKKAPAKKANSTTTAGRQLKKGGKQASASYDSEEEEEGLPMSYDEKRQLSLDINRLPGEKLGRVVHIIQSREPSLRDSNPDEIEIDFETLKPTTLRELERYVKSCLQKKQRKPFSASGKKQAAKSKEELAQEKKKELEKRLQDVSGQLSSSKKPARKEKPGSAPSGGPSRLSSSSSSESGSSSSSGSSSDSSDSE

As to `CC(=O)N1c2ccc(-c3ccc(CN4CCCCC4)cc3)cc2[C@H](Nc2ccccc2)C[C@@H]1C`, the IC50 (as a rule, the concentration that inhibits the measured activity by half) is 8000 nM at Cytochrome P450 2D6; 398 nM in data set [2]; 2000 nM at Cytochrome P450 3A4 [3]; 501 nM in data set [4]; over 33000 nM on Cytochrome P450 1A2; 3.16 nM in the data set with PBMC. Besides, the IC50 in the data set with Blood is 63.1 nM; against Cytochrome P450 2C19, 20000 nM; in [7] it was 316 nM; at Cytochrome P450 3A4 [8], 10000 nM; at Cytochrome P450 2C9, 14000 nM. Moreover, the CLH in the data set on Hepatocyte [1] was determined as 1.8 mL/min/g; in [6], 0.9 mL/min/g; in [9], 6 mL/min/g; in the data set on Hepatocyte [10], 0.8 mL/min/g. Further, the solubility (usually the concentration that dissolves in the medium under given conditions) in [5] was 125 µg/mL (≈ 276 µM). For the same molecule, the pEC170 with HepG2 was 8.

The values are drawn from ChEMBL document CHEMBL3351476, “The discovery of I-BET726 (GSK1324726A), a potent tetrahydroquinoline ApoA1 up-regulator and selective BET bromodomain inhibitor” (J Med Chem, 2014).
